How the values were obtained:
Assay type in all cases: cell-based
EGFR = EGFR kinase inhibitor treatment, with or without EGF: Kaiso expression levels and nuclear staining
Method: Next, steps were taken to determine if EGFR signaling was involved in increasing Kaiso levels and/or cytoplasmic to nuclear trans-localization of Kaiso. All three cell lines were treated with EGF (10 ng/ml) over increasing time intervals of 30 minutes, 1 hour, and 24 hours. […] To determine the specificity of EGFR activity on Kaiso expression levels, an EGFR specific kinase inhibitor, PD153035, was also utilized in the presence or absence of EGF treatment.

Kaiso [1] = assay: EGF treatment: Kaiso mRNA and protein levels by real-time RT-PCR and immunoblot
Method: Unless otherwise herein described, growth factors, such as recombinant human epidermal growth factor (“EGF”), were obtained commercially and was added to serum free media of DMEM and T-media with antibiotics.
Since EGFR over-expressing DU-145WT cells express higher levels of Kaiso than the original DU-145 cells, experiments were further conducted to determine if EGFR signaling would have a direct effect on Kaiso localization and/or expression in prostate cancer cells. As an initial experiment, a dose dependent treatment of EGF consisting of 10, 50 and 100 ng/ml was performed.

Kaiso [2] = assay: EGF treatment: Kaiso nuclear localization by immunofluorescence and subcellular fractionation; settings: EGF 10 ng/ml; from 30 minutes to 24 hour; immunofluorescence; DU-145, DU-145WT, PC-3
Method: Unless otherwise set forth herein, immunofluorescence studies comprised plating cells on a 4-chamber slide with 20000 cells. After treatment, they were then washed with PBS, fixed for 30 minutes with cold methanol at room temperature, incubated at room temperature with Lysis Buffer containing 0.1 M Tris, 0.15M NaCl, 0.01 M EGTA, 1% Triton and 1 mM PMSF, blocked for 30 mins in 5% BSA dissolved in PBS, treated with primary antibody (1:100) overnight in the cold room. Cells were stained for p120^ctn and Kaiso.
Next, steps were taken to determine if EGFR signaling was involved in increasing Kaiso levels and/or cytoplasmic to nuclear trans-localization of Kaiso. All three cell lines were treated with EGF (10 ng/ml) over increasing time intervals of 30 minutes, 1 hour, and 24 hours. […] A key finding within DU-145 cells that lack nuclear Kaiso expression was the observation of a predominant Kaiso nuclear staining. […] To determine the specificity of EGFR activity on Kaiso expression levels, an EGFR specific kinase inhibitor, PD153035, was also utilized in the presence or absence of EGF treatment.

p120^ctn = assay: EGF stimulation: p120ctn tyrosine residues Y228, Y96, Y291; settings: after 24 hours, DU-145 and DU-145WT
Method: Previous reports have observed that p120^ctn has a specific kinase activity for EGFR on tyrosine residue Y228. Additionally, p120^ctn is a known binding partner for Kaiso. Therefore, experiments were conducted determine whether this was apparent in prostate cancer cell lines as well. Given that p120^ctn has multiple tyrosine residues, including Y228, Y96, Y291, located within the regulator domain, the effect of EGF stimulation on each of these residues was studied. […] It was observed by immunofluorescence that Y228 expression remained cytosolic after 24 hours of EGF treatment.

| Kaiso expression levels (EGFR; 500 nM) | nuclear Kaiso staining (EGFR; DU-145 and PC-3 cells) | EGF induced increases in Kaiso levels (EGFR; pre-treatment before EGF, DU-145 and PC-3 cells) | Compound | increase in Kaiso mRNA and protein levels (Kaiso [1]; EGF 10 ng/ml (lowest of 10, 50, 100 ng/ml), real-time RT-PCR and immunoblot) | Kaiso increases (Kaiso [1]; EGF 10 ng/ml, 24 hour period, EGFR over-expressing DU145WT cells) [fold] | Kaiso increases at RNA and protein levels (Kaiso [1]; EGF 10 ng/ml, over 24 hour period, DU-145 and PC-3 cells) | nuclear accumulation of Kaiso (Kaiso [2]) | expression of p120ctn Y228 (versus Y96 and Y291) (p120^ctn) |
| --- | --- | --- | --- | --- | --- | --- | --- | --- |
| significantly reduced | lack of nuclear Kaiso staining | completely blocked | COc1cc2ncnc(Nc3cccc(Br)c3)c2cc1OC [PD153035] | – | – | – | – | – |
| – | – | – | EGF: recombinant human epidermal growth factor, obtained commercially | At least a two-fold increase | 4 | incremental Kaiso increases | Visible nuclear accumulation of Kaiso | induced the specific increased expression of Y228 |

Reference: patent US20140302515A1, “BIOMARKERS FOR BREAST CANCER PATIENTS” (TUSKEGEE UNIVERSITY, priority 2010, published 2014)
